We go through 12 compounds from patent publication US10722501B2 (BAYER AKTIENGESELLSCHAFT, priority 2016, dated 2020).

Each structure is given as a SMILES string.

For this assay, the target named is T1, recombinant full-length human prolyl endopeptidase (PREP) (Homo sapiens, UniProt P48147).
T1 construct: To recombinant full-length human prolyl endopeptidase (PREP, R&D-Systems, 4308-SE); purchased R&D-Systems 4308-SE
T1 sequence (P48147 1-710): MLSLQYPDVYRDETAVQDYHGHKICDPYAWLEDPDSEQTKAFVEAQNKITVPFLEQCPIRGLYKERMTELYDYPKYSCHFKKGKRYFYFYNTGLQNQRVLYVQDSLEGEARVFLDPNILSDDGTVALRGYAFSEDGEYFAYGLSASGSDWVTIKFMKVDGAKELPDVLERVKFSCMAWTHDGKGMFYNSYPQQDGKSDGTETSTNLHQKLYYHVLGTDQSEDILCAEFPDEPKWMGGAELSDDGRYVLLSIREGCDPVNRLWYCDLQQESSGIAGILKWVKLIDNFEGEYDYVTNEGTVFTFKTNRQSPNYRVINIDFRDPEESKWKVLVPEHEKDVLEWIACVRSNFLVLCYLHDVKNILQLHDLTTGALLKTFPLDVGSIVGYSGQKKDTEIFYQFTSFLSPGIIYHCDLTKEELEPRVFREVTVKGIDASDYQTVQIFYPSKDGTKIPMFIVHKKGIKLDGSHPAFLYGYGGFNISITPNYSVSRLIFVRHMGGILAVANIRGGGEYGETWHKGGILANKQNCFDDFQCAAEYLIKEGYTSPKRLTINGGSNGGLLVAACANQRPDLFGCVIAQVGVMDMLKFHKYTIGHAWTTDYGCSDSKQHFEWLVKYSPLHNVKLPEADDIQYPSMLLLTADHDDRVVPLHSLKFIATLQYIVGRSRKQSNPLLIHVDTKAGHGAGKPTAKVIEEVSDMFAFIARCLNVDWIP
Kind of assay: Biochemical human prolyl endopeptidase (PREP) assay with fluorescently labelled substrate. Particulars: substrate Z-Gly-Pro-AMC 50 μM, 32° C., 60 min; some as mean values from multiple independent determinations. In outline:
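Initial rates of fluorescence increase from 50 μM Z-Gly-Pro-AMC cleavage (ex 360/em 465 nm, 60 min, 32° C) give percent PREP activity versus no-compound control, and IC50 is interpolated. Enzyme used at 0.4 nM (final, example) in Tris pH 7.5 with EDTA, GSH, BSA and Brij-35; compounds span 1 nM to 30 μM.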
For the compound `O=C(C1C(C(F)(F)F)CCc2nn(Cc3ncc(Cl)cc3F)c(=O)n21)N1CC(F)C1` (racemic) [Example 308, (5RS,6RS)-2-[(5-Chloro-3-fluoropyridin-2-yl)methyl]-5-[(3-fluoroazetidin-1-yl)carbonyl]-6-(trifluoromethyl)-5,6,7,8-tetrahydro[1,2,4]triazolo[4,3-a]pyridin-3(2H)-one], the IC50 came to 125 nM.

For `Cn1nc(Cn2nc3n(c2=O)[C@H](C(=O)N2CCC(F)(F)C2)CCC3)c2cccnc21` [Example 413, (5S)-5-[(3,3-Difluoropyrrolidin-1-yl)carbonyl]-2-[(1-methyl-1H-pyrazolo[3,4-b]pyridin-3-yl)methyl]-5,6,7,8-tetrahydro[1,2,4]triazolo[4,3-a]pyridin-3(2H)-one], the IC50 is 1.9 nM. Take `Cc1ccc(Cn2nc3n(c2=O)[C@H](C(=O)N2CC[C@@H](F)C2)CCC3)cc1` [Example 111, (5S)-5-{[(3R)-3-Fluoropyrrolidin-1-yl]carbonyl}-2-(4-methylbenzyl)-5,6,7,8-tetrahydro[1,2,4]triazolo[4,3-a]pyridin-3(2H)-one]: the concentration for half-maximal inhibition (IC50) worked out at 0.41 nM.

On to `O=C([C@@H]1CCCc2nn(Cc3ccc(C(F)(F)F)nc3)c(=O)n21)N1CC2CC1C2` [Example 199, (5S)-5-(2-Azabicyclo[2.1.1]hex-2-ylcarbonyl)-2-{[6-(trifluoromethyl)pyridin-3-yl]methyl}-5,6,7,8-tetrahydro[1,2,4]triazolo[4,3-a]pyridin-3(2H)-one], for which the concentration for half-maximal inhibition (IC50) is 59 nM. As for `O=C([C@@H]1CCCc2nn(Cc3ccc(F)c(Cl)c3)c(=O)n21)N1CCC2CC21` (single isomer, unassigned) [Example 202], the figure is 19 nM; as for `O=C(C1C(C(F)(F)F)CCc2nn(Cc3ncc(Cl)cc3F)c(=O)n21)N1CCC(F)(F)C1` (racemic) [Example 296, (5RS,6RS)-2-[(5-Chloro-3-fluoropyridin-2-yl)methyl]-5-[(3,3-difluoropyrrolidin-1-yl)carbonyl]-6-(trifluoromethyl)-5,6,7,8-tetrahydro[1,2,4]triazolo[4,3-a]pyridin-3(2H)-one], 180 nM. As for `O=C([C@@H]1C[C@@H](C(F)(F)F)Cc2nn(Cc3ccc(C(F)(F)F)nc3)c(=O)n21)N1CC[C@H](F)C1` (single isomer, unassigned) [Example 237], the figure is 0.94 nM; as for `O=C([C@@H]1CCCc2nn(Cc3cncc(Cl)c3)c(=O)n21)N1CC(F)C1` [Example 436, (5S)-2-[(5-Chloropyridin-3-yl)methyl]-5-[(3-fluoroazetidin-1-yl)carbonyl]-5,6,7,8-tetrahydro[1,2,4]triazolo[4,3-a]pyridin-3(2H)-one], 4.7 nM. The result for `O=C([C@@H]1CCCc2nn(CC3(c4cccc(Cl)n4)CC3)c(=O)n21)N1CC[C@H](F)C1` [Example 350, (5S)-2-{[1-(6-Chloropyridin-2-yl)cyclopropyl]methyl}-5-{[(3S)-3-fluoropyrrolidin-1-yl]carbonyl}-5,6,7,8-tetrahydro[1,2,4]triazolo[4,3-a]pyridin-3(2H)-one] reads 0.35 nM; that for `CC1CCC(C(=O)N2CCC(F)(F)C2)n2c1nn(Cc1ccc(F)cc1F)c2=O` (racemic) [Example 327, (5RS,8RS)-2-(2,4-Difluorobenzyl)-5-[(3,3-difluoropyrrolidin-1-yl)carbonyl]-8-methyl-5,6,7,8-tetrahydro[1,2,4]triazolo[4,3-a]pyridin-3(2H)-one], 1.9 nM.

Regarding `O=C(C1CC(C(F)(F)F)Cc2nn(Cc3ccnc(C(F)(F)F)c3F)c(=O)n21)N1CC[C@H](F)C1` (single isomer, unassigned) [Example 257], the IC50 came to 0.595 nM. `CC1Cc2nn(Cc3ccnc(C(F)(F)F)c3F)c(=O)n2C(C(=O)N2CC(F)C2)C1` (racemic) [Example 335, (5RS,7RS)-5-[(3-Fluoroazetidin-1-yl)carbonyl]-2-{[3-fluoro-2-(trifluoromethyl)pyridin-4-yl]methyl}-7-methyl-5,6,7,8-tetrahydro[1,2,4]triazolo[4,3-a]pyridin-3(2H)-one]: the half-inhibitory concentration (IC50) amounted to 1.05 nM.
